The record followed here is US7820623B2 (priority 2006, dated 2010).

In the experiment the test system is thapsigargin-induced IL-2 production in human whole blood.

Bridge positions count the residues as written; N and C are the ends. Square brackets hold non-standard residues; d marks the D form. Ends that are not written are not given here. Peptide text beside a SMILES is read from it. 1Nal = N[C@@H](Cc1cccc2ccccc12)C(=O)O

“SEQ ID No: 4989: OSK1 analog without beta strand 1 (labeled des 1-7), Table 42 (CKISRQCLKPCKDAGMRFGKCMNGKCHC-NH2; ends and bridges not checked)”: the “blockade of the whole blood cytokine response, IL-2 and IFNg” value (“blockade” for short) is “retain activity in blocking inflammation”.
Regarding `CC[C@H](C)[C@@H]1NC(=O)[C@H](CCCCN)NC(=O)[C@@H](NC(=O)[C@H](CCCCN)NC(=O)[C@@H](NC(=O)[C@H](CC(N)=O)NC(=O)[C@@H](NC(=O)[C@@H](NC(=O)[C@@H](NC(=O)CN)C(C)C)[C@@H](C)CC)[C@@H](C)CC)C(C)C)CSSC[C@@H]2NC(=O)[C@H](CCCCN)NC(=O)CNC(=O)[C@H](Cc3ccccc3)NC(=O)[C@H](CCCNC(=N)N)NC(=O)[C@H](CCSC)NC(=O)CNC(=O)[C@H](C)NC(=O)[C@H](CCCCN)NC(=O)[C@H](CCCCN)NC(=O)[C@@H]3CSSC[C@@H](C(=O)N[C@H](C(=O)N4CCC[C@H]4C(=O)N[C@@H](CCCCN)C(=O)O)[C@@H](C)O)NC(=O)[C@H](Cc4c[nH]cn4)NC(=O)[C@H](CSSC[C@H](NC(=O)[C@H](Cc4cccc5ccccc45)NC(=O)[C@H](CCCNC(=N)N)NC(=O)[C@H](CO)NC1=O)C(=O)N[C@@H](CC(C)C)C(=O)N[C@@H](CCC(=O)O)C(=O)N1CCC[C@H]1C(=O)N3)NC(=O)[C@H](CCCCN)NC(=O)CNC(=O)[C@H](CC(N)=O)NC(=O)[C@H](CCSC)NC2=O` [Q13Nal] (H-GVIINVKCKISR[1Nal]CLEPCKKAGMRFGKCMNGKCHCTPK-OH; disulfide 8-28, 14-33, 18-35), the IC50 (read-out: Analogue Activity (IC50) WB/IL-2) turned out to be 0.14 nM.

B1: FcLoop-L2-ShK-L2: ShK inserted into the human IgG1 Fc-loop domain with 2-Gly linkers (protein)
chain: MDKTHTCPPCPAPELLGGPSVFLFPPKPKDTLMISRTPEVTCVVVDVSHEDPEVKFNWYVDGVEVHNAKTKPREEQYNSTYRVVSVLTVLHQDWLNGKEYKCKVSNKALPAPIEKTISKAKGQPREPQVYTLPPSRDELGGRSCIDTIPKSRCTAFQCKHSMKYRLSFCRKTCGTCGGTKNQVSLTCLVKGFYPSDIAVEWESNGQPENNYKTTPPVLDSDGSFFLYSKLTVDKSRWQQGNVFSCSVMHEALHNHYTQKSLSLSPGK
modifications: Definition of Artificial Sequence: Synthetic protein
For the molecule B1, the “blockade” value was “potent blockade”.

B2: FcLoop-L2-OsK1-L2: OsK1 inserted into the human IgG1 Fc-loop domain with 2-Gly linkers on either side (protein)
chain: MDKTHTCPPCPAPELLGGPSVFLFPPKPKDTLMISRTPEVTCVVVDVSHEDPEVKFNWYVDGVEVHNAKTKPREEQYNSTYRVVSVLTVLHQDWLNGKEYKCKVSNKALPAPIEKTISKAKGQPREPQVYTLPPSRDELGGGVIINVKCKISRQCLEPCKKAGMRFGKCMNGKCHCTPKGGTKNQVSLTCLVKGFYPSDIAVEWESNGQPENNYKTTPPVLDSDGSFFLYSKLTVDKSRWQQGNVFSCSVMHEALHNHYTQKSLSLSPGK
modifications: Definition of Artificial Sequence: Synthetic protein
As to B2, the “blockade” value is given as “potent blockade”.
